# Experimental data taken from ChEMBL document CHEMBL1772976, “Bathymodiolamides A and B, ceramide derivatives from a deep-sea hydrothermal vent invertebrate mussel, Bathymodiolus thermophilus” (J Nat Prod, 2011).
# Legend:
# MCF7 = test: Cytotoxicity against human MCF7 cells after 48 hrs by MTT assay; format: functional, cell-based; settings: MCF7, 48 h
# HeLa = test: Cytotoxicity against human HeLa cells after 48 hrs by MTT assay; format: functional, cell-based
smiles,measurement,setting,value
CCC/C=C\C/C=C\CCC(=O)O[C@@H](COC(=O)CCCCCCCCCCCCC)[C@H](O)[C@H](CO)NC(=O)CCCCCCCCCCC [BATHYMODIOLAMIDE B],IC50,MCF7,200 nM
same,IC50,HeLa,500 nM
CCC/C=C\C/C=C\C/C=C\CCCCC(=O)O[C@@H](COC(=O)CCCCCCCCCCCCCCC)[C@H](O)[C@H](CO)NC(=O)CCCCCCCCCCC [BATHYMODIOLAMIDE A],IC50,MCF7,100 nM
same,IC50,HeLa,400 nM
